# From ChEMBL document CHEMBL1140505, “D-phenylglycinol-derived non-covalent factor Xa inhibitors: effect of non-peptidic S4 linkage elements on affinity and anticoagulant activity” (2007)
# Key:
# [1] = target: Coagulation factor X (Homo sapiens) (UniProt P00742); test: Binding affinity to F10a
# Plasma [2] = test: Anticoagulant activity in human plasma assessed as concentration causing 1.5 times prolongation of prothrombin time; assay type: functional
# Plasma [3] = test: Anticoagulant activity in rat plasma assessed as concentration causing 1.5 times prolongation of prothrombin time; assay type: functional
# Plasma [4] = test: Anticoagulant activity in dog plasma assessed as concentration causing 1.5 times prolongation of prothrombin time; assay type: functional, Canis lupus familiaris
# Plasma [5] = test: Anticoagulant activity in monkey plasma assessed as concentration causing 1.5 times prolongation of prothrombin time; assay type: functional, Macaca mulatta
# Coagulation factor X (Homo sapiens), sequence (P00742 41-179 limits assumed): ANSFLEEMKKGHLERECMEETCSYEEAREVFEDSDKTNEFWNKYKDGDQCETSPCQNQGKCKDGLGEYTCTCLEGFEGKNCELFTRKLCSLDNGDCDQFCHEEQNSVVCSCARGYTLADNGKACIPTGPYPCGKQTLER
# Coagulation factor X (Homo sapiens), sequence (P00742 235-488 limits assumed): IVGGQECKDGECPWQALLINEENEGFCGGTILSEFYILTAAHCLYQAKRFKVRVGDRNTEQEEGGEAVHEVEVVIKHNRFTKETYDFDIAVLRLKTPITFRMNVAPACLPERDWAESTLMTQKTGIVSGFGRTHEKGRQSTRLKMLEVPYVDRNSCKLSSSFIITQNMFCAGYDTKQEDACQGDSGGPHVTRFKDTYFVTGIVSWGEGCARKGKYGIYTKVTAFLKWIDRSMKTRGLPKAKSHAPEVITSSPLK
Kapp [1],Compound,further results
1200 10^6L/mol,CC(C)N1CCC(CNC[C@H](NC(=O)c2ccc3c(Cl)c[nH]c3c2)c2ccccc2)CC1,
35 10^6L/mol,CC(C)N1CCC(COC[C@H](NC(=O)c2ccc3cc[nH]c3c2)c2ccccc2)CC1,
160 10^6L/mol,Cc1c[nH]c2cc(C(=O)N[C@@H](COCC3CCN(C(C)C)CC3)c3ccccc3)ccc12,
60 10^6L/mol,CC(C)N1CCC(CN(C)C[C@H](NC(=O)c2ccc3c(Cl)c[nH]c3c2)c2ccccc2)CC1,
650 10^6L/mol,CC(C)N1CCC(COCC(NC(=O)c2ccc3c(Cl)c[nH]c3c2)c2ccccc2F)CC1 (stereo not drawn),
1700 10^6L/mol,CC(C)N1CCC(COC[C@H](NC(=O)c2ccc3c(Cl)c[nH]c3c2)c2ccccc2)CC1,Activity (Plasma [2]): 0.4 µM; Activity (Plasma [3]): 0.6 µM; Activity (Plasma [4]): 0.8 µM; Activity (Plasma [5]): 0.4 µM
850 10^6L/mol,CC(C)N1CCC(COCC(NC(=O)c2ccc3c(Cl)c[nH]c3c2)c2ccccc2Cl)CC1 (stereo not drawn),
3 10^6L/mol,COc1ccc(C(=O)N[C@@H](COCC2CCN(C(C)C)CC2)c2ccccc2)cc1,

# Further lines, the compound ahead of its results:
Compound,Kapp [1],further results
CCN1CCC(COCC(NC(=O)c2ccc3c(Cl)c[nH]c3c2)c2ccccc2Cl)CC1 (stereo not drawn),150 10^6L/mol,
CC(C)N1CCC(CNC(=O)[C@H](NC(=O)c2ccc3c(Cl)c[nH]c3c2)c2ccccc2)CC1,460 10^6L/mol,Activity (Plasma [2]): 0.5 µM; Activity (Plasma [3]): 2.6 µM; Activity (Plasma [4]): 3.2 µM; Activity (Plasma [5]): 0.6 µM
CN1CCC(COCC(NC(=O)c2ccc3c(Cl)c[nH]c3c2)c2ccccc2Cl)CC1 (stereo not drawn),65 10^6L/mol,
CCCC[C@H](COCC1CCN(C(C)C)CC1)NC(=O)c1ccc2c(Cl)c[nH]c2c1,41 10^6L/mol,
CC(C)[C@H](COCC1CCN(C(C)C)CC1)NC(=O)c1ccc2c(Cl)c[nH]c2c1,14 10^6L/mol,
O=C(NC(COCC1CCN(c2ccncc2)CC1)c1ccccc1Cl)c1ccc2c(Cl)c[nH]c2c1 (stereo not drawn),1300 10^6L/mol,
CC(C)N1CCC(CCCC(NC(=O)c2ccc3c(Cl)c[nH]c3c2)c2ccccc2)CC1 (stereo not drawn),700 10^6L/mol,
